# Laboratory results reported in publication PMC10648875 (Antimicrobial Agents and Chemotherapy, 2023).
# Like-named read-outs stand apart in the source and are kept apart here.
# Assays:
# Format in all cases: cell-based
# [1] = test system: Escherichia coli NCTC 13353 (ECM7514), CTX-M-15; assay: MIC, reference strain; settings: for MIC: CTX-M-15, BLI at the fixed concentration in brackets
# Protocol: (§1) Other BL/BLI combinations were tested at their recommended BLI concentrations. MIC values for the partner antibiotics and BLIs alone were also determined (Table 2; Table S1). All investigational and marketed BLIs enhanced the potency of antibiotics according to their spectrum of inhibition. MIC values against CLSI-approved QC strains were within acceptable ranges for drugs and combinations tested (Table 3).
# (§2) Isolates were tested for antimicrobial susceptibility using the broth microdilution methodology per CLSI M07 (2018) guidelines ([40]). JMI Laboratories produced frozen-form 96-well panels with cation-adjusted Mueller-Hinton broth as the testing medium. Current CLSI quality assurance practices were followed when performing the susceptibility tests. MIC values were validated by concurrently testing the following CLSI-recommended ([27]) QC reference strains: E. coli NCTC 13353 (CTX-M-15), Klebsiella pneumoniae ATCC BAA-2814 (KPC-3), Klebsiella pneumoniae ATCC BAA-1705 (KPC-2), and K. pneumoniae ATCC 700603 (SHV-18). The inoculum density during susceptibility testing was monitored by bacterial colony counts. Where applicable, QC ranges for tested reference strains were those approved or published by the CLSI ([27]). Meropenem was purchased from Carbosynth; ceftolozane was synthesized at Acme Bioscience, Palo Alto, CA, USA; all other antibiotics were from Sigma Aldrich. Xeruborbactam was synthesized at Qpex Biopharma, San Diego, CA, USA. Avibactam was purchased from eNovation, Chemicals LLC, Bridgewater, NJ, USA. Vaborbactam was synthesized at The Medicines Company, San Diego, CA. Relebactam, taniborbactam, and relebactam were synthesized at Acme Bioscience.
# [2] = test system: K. pneumoniae ATCC BAA-2814 (KP1074), KPC-3; assay: MIC, reference strain; settings: for MIC: KPC-3, BLI at the fixed concentration in brackets
# Protocol: as §1
# as §2, with “([27]).” for “([27]). Meropenem was purchased from Carbosynth; ceftolozane was synthesized at Acme Bioscience, Palo Alto, CA, USA; all other antibiotics were from Sigma Aldrich. Xeruborbactam was synthesized at Qpex Biopharma, San Diego, CA, USA. Avibactam was purchased from eNovation, Chemicals LLC, Bridgewater, NJ, USA. Vaborbactam was synthesized at The Medicines Company, San Diego, CA. Relebactam, taniborbactam, and relebactam were synthesized at Acme Bioscience.”
# [3] = test system: K. pneumoniae ATCC BAA-1705 (KPM1123), KPC-2; assay: MIC, reference strain; settings: for MIC: KPC-2, BLI at the fixed concentration in brackets
# Protocol: as §1
# as §2, with “([27]).” for “([27]). Meropenem was purchased from Carbosynth; ceftolozane was synthesized at Acme Bioscience, Palo Alto, CA, USA; all other antibiotics were from Sigma Aldrich. Xeruborbactam was synthesized at Qpex Biopharma, San Diego, CA, USA. Avibactam was purchased from eNovation, Chemicals LLC, Bridgewater, NJ, USA. Vaborbactam was synthesized at The Medicines Company, San Diego, CA. Relebactam, taniborbactam, and relebactam were synthesized at Acme Bioscience.”
# [4] = test system: E. coli CDC 0069 (EC1106), NDM-1; assay: MIC, reference strain; settings: BLI at the fixed concentration in brackets
# Protocol: as §1
# as §2, with “([27]).” for “([27]). Meropenem was purchased from Carbosynth; ceftolozane was synthesized at Acme Bioscience, Palo Alto, CA, USA; all other antibiotics were from Sigma Aldrich. Xeruborbactam was synthesized at Qpex Biopharma, San Diego, CA, USA. Avibactam was purchased from eNovation, Chemicals LLC, Bridgewater, NJ, USA. Vaborbactam was synthesized at The Medicines Company, San Diego, CA. Relebactam, taniborbactam, and relebactam were synthesized at Acme Bioscience.”
# [5] = test system: Klebsiella pneumoniae ATCC 700603 (KPM2881), SHV-18; assay: MIC, reference strain; settings: for MIC: SHV-18, BLI at the fixed concentration in brackets
# Protocol: as §1
# as §2, with “([27]).” for “([27]). Meropenem was purchased from Carbosynth; ceftolozane was synthesized at Acme Bioscience, Palo Alto, CA, USA; all other antibiotics were from Sigma Aldrich. Xeruborbactam was synthesized at Qpex Biopharma, San Diego, CA, USA. Avibactam was purchased from eNovation, Chemicals LLC, Bridgewater, NJ, USA. Vaborbactam was synthesized at The Medicines Company, San Diego, CA. Relebactam, taniborbactam, and relebactam were synthesized at Acme Bioscience.”
# [6] = test system: K. pneumoniae CDC 0135 (KP1291), VIM-1; assay: MIC, reference strain; settings: BLI at the fixed concentration in brackets
# Protocol: as §1
# as §2, with “([27]).” for “([27]). Meropenem was purchased from Carbosynth; ceftolozane was synthesized at Acme Bioscience, Palo Alto, CA, USA; all other antibiotics were from Sigma Aldrich. Xeruborbactam was synthesized at Qpex Biopharma, San Diego, CA, USA. Avibactam was purchased from eNovation, Chemicals LLC, Bridgewater, NJ, USA. Vaborbactam was synthesized at The Medicines Company, San Diego, CA. Relebactam, taniborbactam, and relebactam were synthesized at Acme Bioscience.”
# [7] = test system: P. aeruginosa BAA-3197 (PA5257), KPC-2; assay: MIC, reference strain; settings: for MIC: KPC-2, BLI at the fixed concentration in brackets
# [8] = test system: surveillance isolates of carbapenem-resistant strains of Enterobacterales; assay: MIC testing of SENTRY surveillance CRE isolates (Table 4, Table S4)
compound,measurement,setting,value
"NCCN[C@H]1CC[C@H](CC(=O)N[C@H]2Cc3cccc(C(=O)O)c3OB2O)CC1 [Taniborbactam, taniborbactam]",MIC,[1],>64 µg/mL
same,MIC,[2],>64 µg/mL
same,MIC,[3],>64 µg/mL
same,MIC,[4],>64 µg/mL
same,MIC,[5],>64 µg/mL
same,MIC,[6],>64 µg/mL
same,MIC,[7],>64 µg/mL
"O=C(O)c1c(F)ccc2c1OB(O)[C@@H]1C[C@H]21 [Xeruborbactam, xeruborbactam]",MIC,"[1]; Escherichia coli, NCTC13353, read-out: MIC",8 µg/mL
same,MIC (number of observations),"[1]; Table S1, repeated QC testing",4 (1) - 8 (8) - 16 (2) µg/ml
same,MIC,"[2]; Klebsiella pneumoniae, ATCCBAA2814, read-out: MIC",32 µg/mL
same,MIC (number of observations),"[2]; Table S1, repeated QC testing",16 (20)-32 (28) µg/ml
same,MIC,"[3]; Klebsiella pneumoniae, ATCCBAA1705, read-out: MIC",16 µg/mL
same,MIC (number of observations),"[3]; Table S1, repeated QC testing",8 (2)-16 (44)-32 (2) µg/ml
same,MIC,"[4]; Escherichia coli, read-out: MIC",16 µg/mL
same,MIC,"[5]; Klebsiella pneumoniae, ATCC700603, read-out: MIC",16 µg/mL
same,MIC (number of observations),"[5]; Table S1, repeated QC testing",8 (7)-16 (4) µg/ml
same,MIC,"[6]; Klebsiella pneumoniae, read-out: MIC",16 µg/mL
same,% of isolates with xeruborbactam MIC of ≤8 µg/mL,[8],13.3%
same,MIC50,"[8]; read-out: MIC50 for xeruborbactam alone, range over all the subsets of isolates",16 to 32 µg/mL
same,% of isolates without significant growth inhibition at 4 µg/mL,[8]; xeruborbactam alone at 4 µg/mL,> 99%
same,MIC,"[7]; Pseudomonas aeruginosa, BAA3197, read-out: MIC",> 64 µg/mL
same,MIC (number of observations),"[7]; Table S1, repeated QC testing",64 (1)- >128 (13) µg/ml
